Reference: patent US20060069132A1, “Azolecarboxamide herbicides” (priority 2004, published 2006)

How the values were obtained:
cocklebur = assay: Test C pre-/postemergence herbicide test; type: in vivo, Xanthium strumarium
In short: (§1)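 Greenhouse-grown plants were evaluated visually 12 to 14 days after treatment, with 100 meaning complete control and 0 no effect. Application was preemergence, or postemergence at 2 to 18 cm.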

ducksalad = assay: Test B flooded paddy test; type: in vivo, Heteranthera limosa; conditions: 1000 g ai/ha, visual rating, scale 0 to 100 (0 no effect, 100 complete control), 13 to 15 days
In short: (§2)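 Visual control ratings, 0–100 versus untreated controls, taken after 13 to 15 days in the greenhouse. Blackgrass received a postemergence spray at the 1- to 4-leaf stage (2–18 cm); ducksalad, umbrella sedge and barnyardgrass were flooded-paddy treated at 2 leaves.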

eastern black nightshade = assay: Test C pre-/postemergence herbicide test; type: in vivo, Solanum ptycanthum; conditions: preemergence
Source text: Seeds of plant species selected from bermudagrass (Cynodon dactylon (L.) Pers.), Surinam grass (Urochloa decumbens (Staph) R. D. Webster, previously named Brachiaria decumbens Stapf), cocklebur (Xanthium strumarium L.), corn (Zea mays L.), large crabgrass (Digitaria sanguinalis (L.) Scop.), woolly cupgrass (Eriochloa villosa (Thunb.) Kunth), giant foxtail (Setaria faberi Herrm.), goosegrass (Eleusine indica (L.) Gaertn.), johnsongrass (Sorghum halepense (L.) Pers.), kochia (Kochia scoparia (L.) Schrad.), lambsquarters (Chenopodium album L.), morningglory (Ipomoea coccinea L.), eastern black nightshade (Solanum ptycanthum Dunal), yellow nutsedge (Cyperus esculentus L.), pigweed (Amaranthus retroflexus L.), common ragweed (Ambrosia elatior L.), soybean (Glycine max (L.) Merr.), common (oilseed) sunflower (Helianthus annuus L.) and velvetleaf (Abutilon theophrasti Medik.) were planted and treated preemergence with test chemicals formulated in a non-phytotoxic solvent mixture which included a surfactant.
At the same time, plants selected from these crop and weed species and also winter barley (Hordeum vulgare L.), blackgrass (Alopecurus myosuroides Huds.), canarygrass (Phalaris minor Retz.), chickweed (Stellaria media (L.) Vill.), downy bromegrass (Bromus tectorum L.), green foxtail (Setaria viridis (L.) Beauv.), Italian ryegrass (Lolium multiflorum Lam.), wheat (Triticum aestivum L.), wild oat (Avenafatua L.) and windgrass (Apera spica-venti (L.) Beauv.) were treated with postemergence applications of some of the test chemicals formulated in the same manner. Plants ranged in height from 2 to 18 cm (1- to 4-leaf stage) for postemergence treatments. Plant species in the flooded paddy test consisted of rice (Oryza sativa), smallflower umbrella sedge (Cyperus difformis L.), ducksalad (Heteranthera limosa (Sw.) Willd.) and barnyardgrass (Echinochloa crus-galli (L.) Beauv.) grown to the 2-leaf stage for testing. Treated plants and controls were maintained in a greenhouse for 12 to 14 days, after which time all species were compared to controls and visually evaluated. Plant response ratings, summarized in Table C, are based on a scale of 0 to 100 where 0 is no effect and 100 is complete control. A dash (-) response means no test result.

corn = assay: Test C pre-/postemergence herbicide test; type: in vivo, Zea mays
In short: as §1

barnyardgrass = assay: Test B flooded paddy test; type: in vivo, Echinochloa crus-galli; conditions: 1000 g ai/ha, visual rating, scale 0 to 100 (0 no effect, 100 complete control), 13 to 15 days
In short: as §2

velvetleaf = assay: Test C pre-/postemergence herbicide test; type: in vivo, Abutilon theophrasti
In short: as §1

goosegrass = assay: Test C pre-/postemergence herbicide test; type: in vivo, Eleusine indica
In short: as §1

lambsquarters = assay: Test C pre-/postemergence herbicide test; type: in vivo, Chenopodium album
In short: as §1

johnsongrass = assay: Test C pre-/postemergence herbicide test; type: in vivo, Sorghum halepense
In short: as §1

rice = assay: Test B flooded paddy test; type: in vivo, Oryza sativa; conditions: 1000 g ai/ha, visual rating, scale 0 to 100 (0 no effect, 100 complete control), 13 to 15 days
In short: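 Scale 0–100: zero equals no visible effect, 100 complete control, judged by eye relative to controls. Timing: 13 to 15 days in greenhouse post-treatment. Growth stage at spraying: two leaves (paddy) or one to four leaves, 2–18 cm (postemergence).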

[1] = 31 g ai/ha, preemergence, scale 0 to 100
[2] = 125 g ai/ha, scale 0 (no effect) to 100 (complete control), visual, 12 to 14 days, preemergence
[3] = Postemergence, 125 g ai/ha, scale 0 to 100, 0 no effect, 100 complete control
[4] = postemergence, 62 g ai/ha, scale 0 to 100
[5] = 125 g ai/ha, scale 0 (no effect) to 100 (complete control), visual, 12 to 14 days
[6] = postemergence, 125 g ai/ha, scale 0 to 100
[7] = 250 g ai/ha, scale 0 to 100 (0 no effect, 100 complete control), visual, 12 to 14 days, preemergence
[8] = Postemergence, 250 g ai/ha, scale 0 to 100, 0 no effect, 100 complete control

SMILES | Plant response rating (0 = no effect, 100 = complete control), Cocklebur (cocklebur; 62 g ai/ha, preemergence) | Plant response rating, Cocklebur (cocklebur; [3]) | Plant response rating, Cocklebur (cocklebur; [4]) | Ducksalad plant response rating (ducksalad) | Plant response rating, Nightshade (eastern black nightshade; [5]) | Plant response rating (0 = no effect, 100 = complete control), Corn (corn; 62 g ai/ha, preemergence) | Plant response rating, Corn (corn; [2]) | Plant response rating, Corn (corn; [3]) | Plant response rating, Corn (corn; [4]) | Barnyardgrass plant response rating (barnyardgrass) | Plant response rating (0 = no effect, 100 = complete control), Velvetleaf (velvetleaf; 62 g ai/ha, preemergence) | Plant response rating, Velvetleaf (velvetleaf; [2]) | Plant response rating, Velvetleaf (velvetleaf; [4]) | Plant response rating (0 = no effect, 100 = complete control), Goosegrass (goosegrass; 62 g ai/ha, preemergence) | Plant response rating, Goosegrass (goosegrass; [2]) | Plant response rating, Goosegrass (goosegrass; [3]) | Plant response rating, Goosegrass (goosegrass; [4]) | Plant response rating (0 = no effect, 100 = complete control), Lambsquarters (lambsquarters; 62 g ai/ha, preemergence) | Plant response rating, Lambsquarters (lambsquarters; [2]) | Plant response rating, Lambsquarters (lambsquarters; [4]) | also measured
CCNC(=O)c1cccc(NC(=O)c2cc(C(C)(C)C)nn2CCF)c1 [Compound 35] | 0 | 70 | 60 | 80 | 90 | 0 | 0 | 40 | 30 | 90 | 100 | 100 | 70 | 30 | 70 | 50 | 40 | 90 | 100 | 90 | Plant response rating, Cocklebur (cocklebur; [1]): 0; Plant response rating, Cocklebur (cocklebur; [2]): 20; Plant response rating, Cocklebur (cocklebur; postemergence, 16 g ai/ha, scale 0 to 100): 20; Plant response rating, Cocklebur (cocklebur; postemergence, 31 g ai/ha, scale 0 to 100): 20; Plant response rating, Nightshade (eastern black nightshade; 31 g ai/ha, scale 0 to 100): 70; Plant response rating, Corn (corn; [1]): 0; Plant response rating, Velvetleaf (velvetleaf; [1]): 0; Plant response rating, Velvetleaf (velvetleaf; [6]): 80; Plant response rating, Goosegrass (goosegrass; [1]): 20; Plant response rating, Lambsquarters (lambsquarters; [1]): 0; Plant response rating, Lambsquarters (lambsquarters; [6]): 90; Plant response rating, Johnsongrass (johnsongrass; [1]): 10; Plant response rating (0 = no effect, 100 = complete control), Johnsongrass (johnsongrass; 62 g ai/ha, preemergence): 50; Plant response rating, Johnsongrass (johnsongrass; [2]): 70; Plant response rating, Johnsongrass (johnsongrass; [3]): 70; Plant response rating, Johnsongrass (johnsongrass; [4]): 70; Rice plant response rating (rice): 60
CCn1nc(C(C)(C)C)cc1C(=O)Nc1cccc(C(=O)NC2CC2)c1 [Compound 44] | 0 | 70 | 50 | 70 | 90 | 0 | 0 | 70 | 70 | 70 | 70 | 70 | 60 | 10 | 30 | 40 | 40 | 90 | 100 | 90 | Plant response rating, Cocklebur (cocklebur; [7]): 0; Plant response rating, Cocklebur (cocklebur; [8]): 70; Plant response rating (0 = no effect, 100 = complete control), Nightshade (eastern black nightshade; 62 g ai/ha): 80; Plant response rating, Nightshade (eastern black nightshade; 250 g ai/ha, scale 0 to 100 (0 no effect, 100 complete control), visual, 12 to 14 days): 100; Plant response rating, Corn (corn; [7]): 0; Plant response rating, Corn (corn; [8]): 80; Plant response rating, Velvetleaf (velvetleaf; [7]): 70; Plant response rating, Goosegrass (goosegrass; [7]): 50; Plant response rating, Goosegrass (goosegrass; [8]): 50; Plant response rating, Lambsquarters (lambsquarters; [7]): 100; Plant response rating, Lambsquarters (lambsquarters; [8]): 90; Plant response rating (0 = no effect, 100 = complete control), Johnsongrass (johnsongrass; 62 g ai/ha, preemergence): 30; Plant response rating, Johnsongrass (johnsongrass; [2]): 30; Plant response rating, Johnsongrass (johnsongrass; [7]): 50; Plant response rating, Johnsongrass (johnsongrass; [3]): 30; Plant response rating, Johnsongrass (johnsongrass; [8]): 40; Plant response rating, Johnsongrass (johnsongrass; [4]): 30; Rice plant response rating (rice): 70
